Experimental data taken from patent US7939332B2, “Detection of analytes in aqueous environments” (Sensors for Medicine and Science, Inc., priority 2000, dated 2011).

Test: Solubility
Format: physicochemical
Settings: for solubility in water: H2O

| Compound | solubility in organic solvents (CH2Cl2, CHCl3, THF, CH3OH, C2H5OH) | solubility in water | solubility in water (listed as anthracene derivative of Examples 1 and 2) | solubility in methanol (methanol, with respect to observing excimer characteristics) | maximum solubility (PBS (pH 7.4)) [µM] |
| --- | --- | --- | --- | --- | --- |
| C=C(C)C(=O)NCCCN(Cc1ccccc1B(O)O)Cc1c2ccccc2cc2ccccc12 [9-[[N-methacryloylaminopropyl-N-(o-boronobenzyl)amino]methyl]anthracene] | soluble in CH2Cl2, CHCl3, THF, CH3OH, and C2H5OH | Limited solubility in H2O | insoluble in water | insufficiently soluble |  |
| C=C(C)C(=O)NCCCN(Cc1ccc(CN(CCCNC(=O)C(=C)C)Cc2ccccc2B2OCC(C)(C)CO2)cc1)Cc1ccccc1B1OCC(C)(C)CO1 [bis boronic acid monomer, α,α′-bis[N-[2-(5,5-dimethyl-1,3,2]dioxaborinan-2-yl)-benzyl]-N-[3-(methacrylamido)propylamino]-1,4-xylene] |  |  |  |  | 1000 |
